One may read the melting point as the temperature, or range, at which the solid turns liquid.

The compound `CS(=O)(=O)c1ccc(C(CC2CCCC2)C(=O)Nc2nccs2)cc1NO` (centres unmarked) [Example 67, 3-Cyclopentyl-2-(3-hydroxyamino-4-methanesulfonyl-phenyl)-N-thiazol-2-yl-propionamide] displayed a melting point of 124 to 126 °C.

As for `CS(=O)(=O)c1ccc(C(CC2CCCC2)C(=O)Nc2nccs2)cc1N` (centres unmarked) [Example 68, 2-(3-Amino-4-methanesulfonyl-phenyl)-3-cyclopentyl-N-thiazol-2-yl-propionamide], the melting point lay within 207 to 209 °C. The value for `O=C(Nc1nccs1)C(CC1CCCC1)c1cccc(S(=O)(=O)C(F)(F)F)c1` (centres unmarked) [Example 69, 3-Cyclopentyl-N-thiazol-2-yl-2-(3-trifluoromethanesulfonyl-phenyl)-propionamide] was 61 to 64 °C; that for `O=C(Nc1nccs1)C(CC1CCCC1)c1ccc(C(F)(F)F)c(F)c1` (centres unmarked) [Example 70, 3-Cyclopentyl-2-(3-fluoro-4-trifluoromethyl-phenyl)-N-thiazol-2-yl-propionamide] was 194 to 195 °C; that for `CS(=O)(=O)c1ccc(C(CC2CCCC2)C(=O)Nc2ccc(Br)cn2)cc1Br` (centres unmarked) [Example 74, 2-(3-Bromo-4-methanesulfonyl-phenyl)-N-(5-bromo-pyridin-2-yl)-3-cyclopentyl-propionamide] was 83 to 86 °C. `CCS(=O)(=O)c1ccc(C(CC2CCCC2)C(=O)Nc2ccccn2)cc1` (centres unmarked) [Example 78, 3-Cyclopentyl-2-(4-ethanesulfonyl-phenyl)-N-pyridin-2-yl-propionamide] had a melting point of 144 to 145 °C. The value for `CS(=O)(=O)c1ccc(C(CC2CCCC2)C(=O)Nc2nccs2)cc1S(C)(=O)=O` (centres unmarked) [Example 79, 2-(3,4-Bis-methanesulfonyl-phenyl)-3-cyclopentyl-N-thiazol-2-yl-propionamide] was 104 to 107 °C; that for `O=C(Nc1nccnn1)C(CC1CCCC1)c1ccc(Cl)c(Cl)c1` (centres unmarked) [Example 81, 3-Cyclopentyl-2-(3,4-dichlorophenyl)-N-[1,2,4]triazin-3-yl-propionamide] was 81 to 83 °C; that for `NS(=O)(=O)c1ccc(C(CC2CCCC2)C(=O)Nc2nccs2)cc1` (centres unmarked) [Example 82, 3-Cyclopentyl-2-(4-sulfamoyl-phenyl)-N-thiazol-2-yl-propionamide] was 179 to 181 °C. To `O=C(Nc1nncs1)C(CC1CCCC1)c1ccc(Cl)c(Cl)c1` (centres unmarked) [Example 83, 3-Cyclopentyl-2-(3,4-dichlorophenyl)-N-[1,3,4]thiadiazol-2-yl-propionamide] belongs 90 to 91 °C. `N#Cc1ccc(C(CC2CCCC2)C(=O)Nc2nccs2)cc1` (centres unmarked) [Example 84(A), 2-(4-Cyano-phenyl)-3-cyclopentyl-N-thiazol-2-yl-propionamide]: the melting point lay within 64 to 66 °C.

The compound `CCCCS(=O)(=O)c1ccc(C(CC2CCCC2)C(=O)Nc2nccs2)cc1` (centres unmarked) [Example 86(A), 2-[4-(Butane-1-sulfonyl)-phenyl]-3-cyclopentyl-N-thiazol-2-yl-propionamide] came in with a melting point of 163 to 165 °C. To `O=C(Nc1nccs1)C(CC1CCCC1)c1ccc(F)c(C(F)(F)F)c1` (centres unmarked) [Example 87(A), 3-Cyclopentyl-2-(4-fluoro-3-trifluoromethyl-phenyl)-N-thiazol-2-yl-propionamide] belongs 125 to 127 °C.

For the compound `O=C(Nc1nccs1)C(CC1CCCC1)c1cccc(C(F)(F)F)c1` (centres unmarked) [Example 88, 3-Cyclopentyl-N-thiazol-2-yl-2-(3-trifluoromethyl-phenyl)-propionamide], the melting point fell in the range of 134 to 136 °C. `CS(=O)(=O)c1ccc(C(CC2CCCC2)C(=O)Nc2ccccn2)cc1C(F)(F)F` (centres unmarked) [Example 90, 3-Cyclopentyl-2-(4-methanesulfonyl-3-trifluoromethyl-phenyl)-N-pyridin-2-yl-propionamide] had a melting point of 86 to 89 °C. `O=C(Nc1ccc(C(F)(F)F)cn1)[C@H](CC1CCCC1)c1ccc(Cl)c(Cl)c1` [Example 101, 3-Cyclopentyl-2(R)-(3,4-dichloro-phenyl)-N-(5-trifluoromethyl-pyridin-2-yl)-propionamide] showed a melting point of 113.8 to 117.5 °C. With `CNC(=O)c1ccc(NC(=O)C(CC2CCCC2)c2ccc(Cl)c(Cl)c2)nc1` (centres unmarked) [Example 103, 6-[3-Cyclopentyl-2-(3,4-dichloro-phenyl)-propionylamino]-N-methyl-nicotinamide], the melting point is 229.1 to 231.7 °C. In turn, `O=C(Nc1cnccn1)C(CC1CCCC1)c1ccc(Cl)c(Cl)c1` (centres unmarked) [Example 104, 3-Cyclopentyl-2-(3,4-dichloro-phenyl)-N-pyrazin-2-yl-propionamide] came in with a melting point of 46.5 to 51.3 °C. As to `O=C(Nc1ccc(Br)cn1)[C@H](CC1CCCC1)c1ccc(Cl)c(Cl)c1` [Example 105, N-(5-Bromo-pyridin-2-yl)-3-cyclopentyl-2(R)-(3,4-dichloro-phenyl)-propionamide], the melting point was 107.3 to 109.9 °C. The value for `O=C(Nc1nccs1)C(CC1CCCC1)c1cccc([N+](=O)[O-])c1` (centres unmarked) [Example 109, 3-Cyclopentyl-2-(3-nitrophenyl)-N-thiazol-2-yl-propionamide] was 171 to 174 °C. To `COc1cccc(C(CC2CCCC2)C(=O)Nc2nccs2)c1` (centres unmarked) [Example 110, 3-Cyclopentyl-2-(3-methoxy-phenyl)-N-thiazol-2-yl-propionamide] belongs 44 to 45 °C; to `O=C(Nc1nccs1)C(CC1CCCC1)c1cccc(O)c1` (centres unmarked) [Example 111, 3-Cyclopentyl-2-(3-hydroxy-phenyl)-N-thiazol-2-yl-propionamide], 177 to 179 °C. `COc1ccc(C(CC2CCCC2)C(=O)Nc2nccs2)cc1OC` (centres unmarked) [Example 113, 3-Cyclopentyl-2-(3,4-dimethoxy-phenyl)-N-thiazol-2-yl-propionamide] yielded a melting point of 50 to 52 °C. The value for `O=C(Nc1nccs1)C(CC1CCCC1)c1ccc(O)c(O)c1` (centres unmarked) [Example 114, 3-Cyclopentyl-2-(3,4-dihydroxy-phenyl)-N-thiazol-2-yl-propionamide] was 170 to 173 °C; that for `COc1ccc(C(CC2CCCC2)C(=O)Nc2nccs2)cc1` (centres unmarked) [Example 115, 3-Cyclopentyl-2-(4-methoxy-phenyl)-N-thiazol-2-yl-propionamide] was 166 to 167 °C. Compound `O=C(Nc1nccs1)C(CC1CCCC1)c1ccc(O)cc1` (centres unmarked) [Example 116, 3-Cyclopentyl-2-(4-hydroxy-phenyl)-N-thiazol-2-yl-propionamide] gave a melting point of 198 to 200 °C. `COC(=O)c1ccc(C(CC2CCCC2)C(=O)Nc2nccs2)cc1` (centres unmarked) [Example 117, 4-[2-Cyclopentyl-1-(thiazol-2-ylcarbamoyl)-ethyl]-benzoic acid methyl ester] gave a melting point of 54 to 56 °C. The value for `COc1ccc(C(CC2CCCC2)C(=O)Nc2nccs2)cc1F` (centres unmarked) [Example 118, 3-Cyclopentyl-2-(3-fluoro-4-methoxy-phenyl)-N-thiazol-2-yl-propionamide] was 51 to 53 °C. The compound `O=C(Nc1nccs1)C(CC1CCCC1)c1ccc(O)c(F)c1` (centres unmarked) [Example 119, 3-Cyclopentyl-2-(3-fluoro-4-hydroxy-phenyl)-N-thiazol-2-yl-propionamide] yielded a melting point of 199 to 201 °C.

These data come from patent publication US6610846B1, “Heteroaromatic glucokinase activators” (Hoffman-La Roche Inc., priority 1999, dated 2003).
